According to patent US11439607B2 (Paracelsus Neuroscience I, LLC, priority 2016, dated 2022):

Key:
Carrageenan model = assay: Carrageenan - Paw pressure test; assay type: in vivo, rodent; conditions: Internal reference, Indomethacin 30 mg/kg p.o.
Protocol: (§1) Depending on the test, the percentage of activity was calculated from the mean value of the vehicle-treated animals and compared to naïve animals, control paw or cut-off value.

Kaolin model = assay: Kaolin - Gait score; assay type: in vivo, rodent; conditions: Internal reference, Indomethacin 10 mg/kg p.o.
Protocol: as §1

Bennett model = Bennett model - Paw pressure test; assay type: in vivo, rodent; conditions: Internal reference, Morphine 4 mg/kg s.c.
Protocol: as §1

Formalin test = Formalin test - Score; assay type: in vivo, rodent; conditions: internal reference, Morphine 4 mg/kg s.c.
Protocol: as §1

Healthy rats [1] = assay: Healthy rats - Tail flick test; assay type: in vivo; conditions: Internal reference, Morphine 4 mg/kg s.c.
Protocol: as §1

Healthy rats [2] = assay: Healthy rats - Paw pressure test; assay type: in vivo; conditions: Internal reference, Morphine 4 mg/kg s.c.
Protocol: as §1

Brennan model = Brennan model - Electronic Von Frey test; assay type: in vivo, rodent; conditions: Internal reference, Morphine 4 mg/kg s.c.
Protocol: as §1

Oxaliplatin model = assay: Oxaliplatin - Acetone test (reaction time); assay type: in vivo, rodent; conditions: Internal reference, Gabapentin 100 mg/kg p.o.
Protocol: as §1

CCI rats = assay: Chronic constriction injury (CCI) model, von Frey paw withdrawal threshold; assay type: in vivo, rat; conditions: gabapentin 100 mg/kg p.o., 2 hours after administration
Protocol: Peripheral nerve injury was performed according to the method of Bennett and Xie (Bennett and Xie, 1988), with paw withdrawal thresholds to Von Frey filament stimulation measured as described previously (Chaplan et al., 1994; Tal and Bennett, 1994).
In the first cohort of nerve injured rats, hindpaw mechanical hypersensitivity was evident by day 7 and maintained for the duration of the experiment (see FIG. 4A). […] Experiments were run using a simple cross-over design. Tactile hypersensitivity of rats was evaluated one day prior to drug testing. Drugs were allowed to wash out for one week at which time the mechanical hypersensitivity was reassessed. Rats were then randomly re-assigned to groups prior to the next arm of the study being run. In the final arm, tissue was collected from 3 animals from each group immediately after behavioral assessment of allodynia. Dosing of drugs, assessment of mechanical thresholds and collection of tissues were performed by individual experimenters all blinded to treatments.
All CCI data are presented as mean+/−S.E.M. and were analyzed using ANOVA followed by Fisher's PLSD post-hoc analysis (StatView, Cary, N.C.) when appropriate.

## COc1ccc2c(c1)c(CC(=O)O)c(C)n2C(=O)c1ccc(Cl)cc1 [Indomethacin]
Carrageenan model
  % of activity vs. vehicle: 100%
Kaolin model
  % of activity vs. vehicle: 58%

## CN1CC[C@]23c4c5ccc(O)c4O[C@H]2[C@@H](O)C=C[C@H]3[C@H]1C5 [Morphine]
Bennett model
  % of activity vs. vehicle: 191%
Formalin test; early phase
  % of activity vs. vehicle: 57%
Formalin test; late phase
  % of activity vs. vehicle: 38%
Healthy rats [1]
  % of activity vs. vehicle: 66%
Healthy rats [2]
  % of activity vs. vehicle: 69%
Brennan model
  % of activity vs. vehicle: 88%

## NCC1(CC(=O)O)CCCCC1 [Gabapentin]
Oxaliplatin model
  % of activity vs. vehicle: 82%
CCI rats
  Reversal of mechanical hypersensitivity (tactile allodynia): 66%
